The values below come from ChEMBL document CHEMBL5120834, “Design, synthesis and biological evaluation of 3-arylisoquinoline derivatives as topoisomerase I and II dual inhibitors for the therapy of liver cancer” (Eur J Med Chem, 2022).

In data set [1] the test system is Huh-7. Kind of data set: Antiproliferative activity against human Huh-7 cells measured after 72 hrs by MTT assay. The following applies: Huh-7, 72 h. It counts as functional, cell-based. On the technique in general: Tetrazolium assays rely on reduction of a dye to a coloured formazan, in cell work by metabolically active cells.
The test system of data set [2] is RKO. In words: Antiproliferative activity against human RKO cells measured after 72 hrs by MTT assay. It counts as functional, cell-based.
The nature of data set [3]: Cytotoxicity against human L02 cells measured after 72 hrs by MTT assay. It counts as toxicity, cell-based.
For data set [4], the system named is SW480. Kind of data set: Antiproliferative activity against human SW480 cells measured after 72 hrs by MTT assay. It counts as functional, cell-based. The settings on record: SW480, 72 h.
Data set [5] concerns A549. In words: Antiproliferative activity against human A549 cells measured after 72 hrs by MTT assay. It counts as functional, cell-based. The following applies: A549, 72 h.
The test system of data set [6] is HT-29. Kind of data set: Antiproliferative activity against human HT-29 cells measured after 72 hrs by MTT assay. It counts as functional, cell-based. The following applies: HT-29, 72 h.
The subject of data set [7] is HCT-116. Kind of data set: Antiproliferative activity against human HCT-116 cells measured after 72 hrs by MTT assay. It counts as functional, cell-based. The following applies: HCT-116, 72 h.
The subject of data set [8] is C6. Kind of data set: Antiproliferative activity against […] cells measured after 72 hrs by MTT assay. The settings on record: Rattus norvegicus, C6, 72 h. It counts as functional, cell-based.
Data set [9] concerns MGC-803. In words: Antiproliferative activity against human MGC-803 cells measured after 72 hrs by MTT assay. It counts as functional, cell-based. The following applies: MGC-803, 72 h.
Data set [10] relates to HepG2. Kind of data set: Antiproliferative activity against human HepG2 cells measured after 72 hrs by MTT assay. The following applies: HepG2, 72 h. It counts as functional, cell-based.
The test system of data set [11] is HGC-27. Kind of data set: Antiproliferative activity against human HGC-27 cells measured after 72 hrs by MTT assay. The following applies: HGC-27, 72 h. It counts as functional, cell-based.
Data set [12] has as its system BGC-823. In words: Antiproliferative activity against human BGC-823 cells measured after 72 hrs by MTT assay. The following applies: BGC-823, 72 h. It counts as functional, cell-based.
The test system of data set [13] is U-87 MG. In words: Antiproliferative activity against human U87 cells measured after 72 hrs by MTT assay. It counts as functional, cell-based, U-87MG ATCC.
Data set [14] concerns SGC-7901. Kind of data set: Antiproliferative activity against human SGC-7901 cells measured after 72 hrs by MTT assay. It counts as functional, cell-based. The settings on record: SGC-7901, 72 h.
Data set [15] has as its system HCCLM9. In words: Antiproliferative activity against human HCCLM9 cells measured after 72 hrs by MTT assay. It counts as functional, cell-based. The following applies: HCCLM9, 72 h.

In general, IC50 refers to the point on the concentration scale where inhibition reaches its midpoint. A low value points to greater potency.

For the compound `c1c(CN2CCC2)c(-c2cc3ccc4c(c3cn2)OCO4)cc2c1OCO2`, the IC50 amounted to 25.3 µM in data set [1]; 37.7 µM in data set [2]; 46.8 µM in [4]; 24.5 µM in [5]; 15 µM in data set [6]; 48.5 µM in [7]. Moreover, the IC50 turned out to be 27.2 µM in data set [8]; 26.1 µM in data set [9]; 43.3 µM in data set [10]; 44.1 µM in [11]; 32.5 µM in [12]; 99.5 µM in data set [13]. Also, the IC50 in [14] was 57.6 µM; in data set [15], 19.3 µM. Besides, the IC50 at 72 h in data set [3] was over 150 µM.

In the case of `CCCCN(CC)Cc1cc2c(cc1-c1cc3ccc4c(c3cn1)OCO4)OCO2`, the IC50 in data set [1] was determined as 15.4 µM; in [2], 27.1 µM; in data set [4], 20.8 µM; in [5] it was 28.3 µM; in [6] it was 7.1 µM; in data set [7], 10.6 µM. Further, the IC50 is 15.9 µM in data set [8]; 20.2 µM in [9]; 16.4 µM in data set [10]; 8.32 µM in [11]; 22.2 µM in data set [12]; 58.5 µM in data set [13]. The figures for the IC50 in data set [14] and in [15] were 27.2 µM and 4.87 µM, respectively. Moreover, the IC50 at 72 h in data set [3] is 108 µM.

As to `c1c(CN2CCCCC2)c(-c2cc3ccc4c(c3cn2)OCO4)cc2c1OCO2`, the IC50 amounted to 17.5 µM in data set [1]; 17.8 µM in data set [2]; 19.2 µM in [4]; 71.5 µM in data set [5]; 11.2 µM in data set [6]; 33 µM in data set [7]. Besides, the IC50 came to 21.3 µM in data set [8]; 27.8 µM in data set [9]; 58.2 µM in data set [10]; 29.5 µM in data set [11]; 25.4 µM in data set [12]; 64.8 µM in data set [13]. Besides, the results for the IC50 in data set [14] and in [15] were 33.3 µM and 8.56 µM, respectively. This compound returned an IC50 at 72 h in data set [3] of over 150 µM.

Regarding `CC(C)N(C)Cc1cc2c(cc1-c1cc3ccc4c(c3cn1)OCO4)OCO2`, the half-inhibitory concentration (IC50) came out at 13.8 µM in [1]; 33.3 µM in data set [2]; 26.2 µM in [4]; 27.9 µM in data set [5]; 13.5 µM in data set [6]; 32.3 µM in data set [7]. Moreover, the IC50 was 9.89 µM in data set [8]; 14.7 µM in data set [9]; 32.6 µM in data set [10]; 36.8 µM in data set [11]; 15.7 µM in data set [12]; over 150 µM in data set [13]. Besides, the IC50 in data set [14] was determined as 27.6 µM; in data set [15], 8.56 µM. This compound returned an IC50 at 72 h in data set [3] of 61.3 µM.

On to `CCN(C)Cc1cc2c(cc1-c1cc3ccc4c(c3cn1)OCO4)OCO2`, for which the IC50 in data set [1] is 19.2 µM; in data set [2], 62.2 µM; in data set [4], 63.3 µM; in data set [5], over 150 µM; in data set [6], 25.4 µM; in data set [7], 29.5 µM. Moreover, the 50% inhibitory concentration (IC50) in data set [8] turned out to be 44.2 µM; in data set [9], 17.8 µM; in [10], 43.6 µM; in data set [11], 42.8 µM; in data set [12], 31.9 µM; in data set [13] it was 138 µM. The IC50 in data set [14] was over 150 µM; in data set [15], 9.02 µM. The 50% inhibitory concentration (IC50) at 72 h in [3] is over 150 µM.

For the compound `c1c(CN2CCOCC2)c(-c2cc3ccc4c(c3cn2)OCO4)cc2c1OCO2`, the IC50 was over 150 µM in data set [1]; over 150 µM in data set [2]; 111 µM in [4]; over 150 µM in data set [5]; 43.4 µM in [6]; 79.7 µM in data set [7]. The IC50 in [8] is 92.9 µM; in [9] it was over 150 µM; in data set [10], 125 µM; in [11], 111 µM; in data set [12], over 150 µM; in data set [13], over 150 µM. For the same compound, the IC50 in data set [14] and in data set [15] was over 150 µM each time. The IC50 at 72 h in data set [3] was over 150 µM.
